Assay results as given in PubChem BioAssay (NCI).
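Test compounds were applied to cells in 96-well plates for 48 hours at 5 doses. The concentration for 50% growth inhibition is given as GI50. TGI: total growth inhibition.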

Key:
Test in all cases: inhibition of tumour cell growth, NCI panel, 48 h
786-0 renal = tested on: 786-0 renal
A498 renal = tested on: A498 renal
A549 NSCLC = tested on: A549 NSCLC
ACHN renal = tested on: ACHN renal
BT-549 breast = tested on: BT-549 breast
CAKI-1 renal = tested on: CAKI-1 renal
CCRF-CEM leukemia = tested on: CCRF-CEM leukemia
DU-145 prostate = tested on: DU-145 prostate
EKVX NSCLC = tested on: EKVX NSCLC
HCC-2998 colon = tested on: HCC-2998 colon
HCT-116 colon = tested on: HCT-116 colon
HCT-15 colon = tested on: HCT-15 colon
HL-60(TB) leukemia = tested on: HL-60(TB) leukemia
HOP-62 NSCLC = tested on: HOP-62 NSCLC
HOP-92 NSCLC = tested on: HOP-92 NSCLC
HS 578T breast = tested on: HS 578T breast
HT29 colon = tested on: HT29 colon
IGROV1 ovarian = tested on: IGROV1 ovarian
K-562 leukemia = tested on: K-562 leukemia
KM12 colon = tested on: KM12 colon
LOX IMVI melanoma = tested on: LOX IMVI melanoma
M14 melanoma = tested on: M14 melanoma
MALME-3M melanoma = tested on: MALME-3M melanoma
MCF7 breast = tested on: MCF7 breast
MDA-MB-231 breast = tested on: MDA-MB-231 breast
MDA-MB-435 = tested on: MDA-MB-435
MOLT-4 leukemia = tested on: MOLT-4 leukemia
NCI-H226 lung = tested on: NCI-H226 lung
NCI-H23 lung = tested on: NCI-H23 lung
NCI-H460 lung = tested on: NCI-H460 lung
NCI-H522 lung = tested on: NCI-H522 lung
NCI/ADR-RES ovarian = tested on: NCI/ADR-RES ovarian
OVCAR-4 ovarian = tested on: OVCAR-4 ovarian
OVCAR-5 ovarian = tested on: OVCAR-5 ovarian
PC-3 prostate = tested on: PC-3 prostate
RPMI-8226 leukemia = tested on: RPMI-8226 leukemia
RXF 393 renal = tested on: RXF 393 renal
SF-268 CNS = tested on: SF-268 CNS
SF-295 CNS = tested on: SF-295 CNS
SF-539 CNS = tested on: SF-539 CNS
SK-MEL-2 melanoma = tested on: SK-MEL-2 melanoma
SK-MEL-28 melanoma = tested on: SK-MEL-28 melanoma
SK-MEL-5 melanoma = tested on: SK-MEL-5 melanoma
SK-OV-3 ovarian = tested on: SK-OV-3 ovarian
SN12C renal = tested on: SN12C renal
SNB-19 CNS = tested on: SNB-19 CNS
SNB-75 CNS = tested on: SNB-75 CNS
SR leukemia = tested on: SR leukemia
SW-620 colon = tested on: SW-620 colon
T-47D breast = tested on: T-47D breast
TK-10 renal = tested on: TK-10 renal
U251 CNS = tested on: U251 CNS
UACC-257 melanoma = tested on: UACC-257 melanoma
UACC-62 melanoma = tested on: UACC-62 melanoma
UO-31 renal = tested on: UO-31 renal

Structure (SMILES): COc1ccc(N(C)c2cc(C#N)nc3ccccc23)cc1N
- GI50 (786-0 renal): < 10 nM
- TGI (786-0 renal): > 100000 nM
- GI50 (A498 renal): 83400 nM
- TGI (A498 renal): > 100000 nM
- GI50 (A549 NSCLC): < 10 nM
- TGI (A549 NSCLC): > 100000 nM
- GI50 (ACHN renal): < 10 nM
- TGI (ACHN renal): > 100000 nM
- GI50 (BT-549 breast): < 10 nM
- GI50 (CAKI-1 renal): < 10 nM
- TGI (CAKI-1 renal): > 100000 nM
- GI50 (CCRF-CEM leukemia): < 10 nM
- TGI (CCRF-CEM leukemia): > 37100 nM
- GI50 (DU-145 prostate): < 10 nM
- TGI (DU-145 prostate): > 100000 nM
- GI50 (EKVX NSCLC): < 10 nM
- TGI (EKVX NSCLC): > 100000 nM
- GI50 (HCC-2998 colon): < 10 nM
- TGI (HCC-2998 colon): 131 nM
- GI50 (HCT-116 colon): < 10 nM
- TGI (HCT-116 colon): 1530 nM
- GI50 (HCT-15 colon): < 10 nM
- GI50 (HL-60(TB) leukemia): < 10 nM
- TGI (HL-60(TB) leukemia): < 10 nM
- GI50 (HOP-62 NSCLC): < 10 nM
- TGI (HOP-62 NSCLC): > 100000 nM
- TGI (HOP-92 NSCLC): > 76200 nM
- GI50 (HS 578T breast): < 10 nM
- TGI (HS 578T breast): > 100000 nM
- GI50 (HT29 colon): < 10 nM
- TGI (HT29 colon): < 10 nM
- GI50 (IGROV1 ovarian): < 10 nM
- TGI (IGROV1 ovarian): > 100000 nM
- GI50 (K-562 leukemia): < 10 nM
- TGI (K-562 leukemia): > 100000 nM
- GI50 (KM12 colon): < 10 nM
- TGI (KM12 colon): > 45400 nM
- GI50 (LOX IMVI melanoma): < 10 nM
- TGI (LOX IMVI melanoma): > 64200 nM
- GI50 (M14 melanoma): < 10 nM
- TGI (M14 melanoma): > 100000 nM
- GI50 (MALME-3M melanoma): < 10 nM
- TGI (MALME-3M melanoma): > 84600 nM
- GI50 (MCF7 breast): < 10 nM
- TGI (MCF7 breast): > 100000 nM
- GI50 (MDA-MB-231 breast): < 10 nM
- TGI (MDA-MB-231 breast): < 10 nM
- GI50 (MDA-MB-435): < 10 nM
- TGI (MDA-MB-435): < 10 nM
- GI50 (MOLT-4 leukemia): < 10 nM
- TGI (MOLT-4 leukemia): > 60600 nM
- GI50 (NCI-H226 lung): < 10 nM
- TGI (NCI-H226 lung): > 100000 nM
- GI50 (NCI-H23 lung): < 10 nM
- TGI (NCI-H23 lung): > 54100 nM
- GI50 (NCI-H460 lung): < 10 nM
- TGI (NCI-H460 lung): 4560 nM
- GI50 (NCI-H522 lung): < 10 nM
- TGI (NCI-H522 lung): < 10 nM
- GI50 (NCI/ADR-RES ovarian): < 10 nM
- TGI (NCI/ADR-RES ovarian): < 10 nM
- GI50 (OVCAR-4 ovarian): 3690 nM
- TGI (OVCAR-4 ovarian): > 100000 nM
- GI50 (OVCAR-5 ovarian): < 10 nM
- TGI (OVCAR-5 ovarian): > 100000 nM
- GI50 (PC-3 prostate): < 10 nM
- TGI (PC-3 prostate): > 100000 nM
- GI50 (RPMI-8226 leukemia): < 10 nM
- TGI (RPMI-8226 leukemia): > 54100 nM
- GI50 (RXF 393 renal): < 10 nM
- TGI (RXF 393 renal): > 100000 nM
- GI50 (SF-268 CNS): < 10 nM
- TGI (SF-268 CNS): > 100000 nM
- GI50 (SF-295 CNS): < 10 nM
- TGI (SF-295 CNS): > 100000 nM
- GI50 (SF-539 CNS): < 10 nM
- TGI (SF-539 CNS): < 10 nM
- GI50 (SK-MEL-2 melanoma): < 10 nM
- TGI (SK-MEL-28 melanoma): > 100000 nM
- GI50 (SK-MEL-5 melanoma): < 10 nM
- TGI (SK-MEL-5 melanoma): < 10 nM
- GI50 (SK-OV-3 ovarian): < 18.7 nM
- TGI (SK-OV-3 ovarian): > 100000 nM
- GI50 (SN12C renal): < 10 nM
- TGI (SN12C renal): > 34300 nM
- GI50 (SNB-19 CNS): < 10 nM
- TGI (SNB-19 CNS): > 100000 nM
- GI50 (SNB-75 CNS): < 10 nM
- TGI (SNB-75 CNS): > 67700 nM
- GI50 (SR leukemia): < 10 nM
- TGI (SR leukemia): > 73900 nM
- GI50 (SW-620 colon): < 10 nM
- TGI (SW-620 colon): > 100000 nM
- GI50 (T-47D breast): 7610 nM
- TGI (T-47D breast): > 100000 nM
- GI50 (TK-10 renal): 19600 nM
- TGI (TK-10 renal): > 100000 nM
- GI50 (U251 CNS): < 10 nM
- TGI (U251 CNS): > 100000 nM
- GI50 (UACC-257 melanoma): 8620 nM
- TGI (UACC-257 melanoma): > 100000 nM
- GI50 (UACC-62 melanoma): < 10 nM
- TGI (UACC-62 melanoma): > 100000 nM
- GI50 (UO-31 renal): < 10 nM
- TGI (UO-31 renal): > 100000 nM
